Consider 1 molecule from PMC3597028 (Disease Models & Mechanisms, 2012).

What is called IC50 is the concentration that gives 50% inhibition.

Structures are written as SMILES.

This assay deals with PAD2 (peptidylarginine deiminase 2) (Homo sapiens, UniProt Q9Y2J8). The format is biochemical.
Chain of PAD2 (peptidylarginine deiminase 2) (Q9Y2J8 whole entry): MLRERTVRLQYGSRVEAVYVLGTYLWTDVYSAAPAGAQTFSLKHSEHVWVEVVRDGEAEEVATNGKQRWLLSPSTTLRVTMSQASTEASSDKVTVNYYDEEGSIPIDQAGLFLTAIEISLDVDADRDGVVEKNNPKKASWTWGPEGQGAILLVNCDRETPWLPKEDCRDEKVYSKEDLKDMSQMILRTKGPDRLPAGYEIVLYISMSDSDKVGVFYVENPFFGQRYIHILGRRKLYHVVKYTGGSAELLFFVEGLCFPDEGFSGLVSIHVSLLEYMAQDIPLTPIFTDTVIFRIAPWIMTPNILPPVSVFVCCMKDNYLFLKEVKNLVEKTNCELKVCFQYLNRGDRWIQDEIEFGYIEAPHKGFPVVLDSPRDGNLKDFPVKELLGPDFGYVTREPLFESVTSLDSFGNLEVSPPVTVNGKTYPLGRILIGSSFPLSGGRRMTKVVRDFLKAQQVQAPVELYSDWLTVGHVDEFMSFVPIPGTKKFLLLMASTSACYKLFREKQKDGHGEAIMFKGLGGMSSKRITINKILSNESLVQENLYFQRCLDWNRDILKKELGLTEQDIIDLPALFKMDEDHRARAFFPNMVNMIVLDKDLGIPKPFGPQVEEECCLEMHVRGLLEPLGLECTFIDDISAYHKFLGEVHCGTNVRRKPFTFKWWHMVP

For `N=C(N)CCl` [2CA, 2-chloroacetamidine], half-maximal inhibition (IC50) was put at 14.4 mM.
